According to US6208893A, “Electroporation apparatus with connective electrode template” (Genetronics, Inc., priority 1999, dated 2001):
Read-outs that look alike come from different tables or passages of the source.

Columns and labels:
PC-3 cells [1] = assay: XTT cell proliferation assay, cytotoxicity on PC-3 cells with and without electroporation; details: for cell susceptibility with electroporation / cytotoxic enhancement, rank order: combined with electroporation; for cytotoxicity enhancement ratio: IC50 no electroporation vs with electroporation
Experimental: PC-3 cells (ATCC CRL-1435, a prostate cancer cell line) were grown in RPMI-1640 supplemented with 15% fetal calf serum (FCS) and 1% L-glutamine in 5% CO2 at 37° C. Cells in the exponential phase of growth were harvested by trypsinization and their viability was determined by trypan blue exclusion. Cell were suspended in culture medium at 2×10^5 cells/ml and seeded in the wells of a 96-well plate at a final concentration of 4×10^4 cells per well. Cells were pulsed using appropriate needle array electrodes connected to a square wave pulse generator. The needle array was inserted in the well of the 96 well microplate and pulsed using the following parameters:
A cell survival curve was produced for the different electric fields.
Methods, 142:2, 257-265, 1991). The XTT assay is based on a spectrophotometric assay of the metabolic conversion of tetrazolium salts to formazan; living cells convert XTT to formazan, which can be measured spectrophotometrically. Results were expresses as a comparison of the lC50 (concentration of drug inhibiting 50% of the cells) of each agent in the presence and absence of clectroporation, and are presented in Table 1.

PC-3 cells [2] = assay: PC-3 tumors in nude mice, intratumoral bleomycin with or without electroporation; format: in vivo, nude mice; human prostate tumor (PC-3) cells; details: for death: deaths due to infighting
Experimental: In order to examine the effect of electroporation on the effectiveness of chemotherapeutic agents in vivo, a nude mouse model was utilized. For these experiments, 0.1 ml of a matrigel solution (a serum-free solution consisting of one part matrigel diluted in four parts RPMI-1640) containing 5×10^6 PC-3 cells was implanted on the flank of nude mice. The tumors were allowed to grow until a tumor volume of […]. The mice were weighed and randomly divided into six groups as follows:
Group 1: no chemotherapeutic agent, no electroporation
Group 2: 0.5 unit Bleomycin, no electroporation
Group 3: 0.5 units Bleomycin, 4 needle array, 0.65 cm, 942V, 4×100 μs pulses
Group 4: 0.5 units Bleomycin, 6 needle array, 1.00 cm, 1130 V, 6×100 μs pulses
Group 5: 0.5 units Bleomycin, 6 needle array, 0.50 cm, 559 V, 6×100 μs pulses
Group 6: 0.5 units Bleomycin, 4 needle array, 0.87 cm, 1500V, 4×100 μs pulses
In those animals which received Bleomycin, the chemotherapeutic agent (0.5 unit) was dissolved in 0.01 ml saline and injected intratumorally by "fanning." After 10±1 minutes, a Genetronics Medpulser™ device was used to pulse the tumors with a set of either 6 or 4-needle array electrodes. All treatments were given as a single set of pulses.
The animals were monitored daily for morality or any sign of disease for 67 days (see FIG. 24, where D=drug treatment (Bleomycin) and e=electroporation). Tumor size was measured and tumor volume calculated using the formula: […]
wherein a, b, and c are the length, width, and depth of the tumor in mm.
Following the monitoring period, the tumors were harvested and sections were prepared for histological analyses. Animals were classified as having progressive disease (appearance of new lesions not previously identified or having an estimated increase of 25% or more in existent lesion size), a complete response (complete disappearance of all known disease, a partial response (wherein the tumor size decrease 50% or more). Deaths were noted to be due to infighting of mice in the same cage.

prostate = assay: Intraprostatic injection of Bleomycin with electroporation, tolerability, ECG and histology in dog; format: in vivo, male beagle dog
Experimental: In order to evaluate the technical feasibility of intraprostatic injection of Bleomycin, the following study was performed. A male beagle dog with a prostate size of >2 cm in diameter was anesthetized, A midline laparotomy was performed, and the bladder and gut reflected to visualize the prostate gland. Under direct visual guidance, Bleomycin was injected into each of six sextants (base, mid, and apex of both the left and right sides) of the prostate. Four electroporation needles were then inserted transperineally under visual guidance to administer the electroporation cycles. […] The ECG was recorded during each of the electroporation pulse sequences. The first two sequences were conducted with the needles inserted into the prostate, through the perineum. Four additional sequences were recorded with the needles inserted directly into the muscles of the left hindlimb. Each of the pulse sequences produced stimulation artifacts on the recording of the ECG.
The prostate was then excised and processed for histological evaluation.

[3] = partition coefficient between octanol and water; cited from earlier work
tumor cell = details: cited from earlier work
[4] = during electroporation pulse sequences

## N.N.[Cl][Pt][Cl] [Cisplatin]
PC-3 cells [1]
  cell susceptibility with electroporation: electroporation enhances cell susceptibility
PC-3 cells [1]; read-out: IC50 no electroporation, no electroporation, 20 hours after treatment
  IC50: 50 µM
PC-3 cells [1]; read-out: IC50 with electroporation, with electroporation, 6 pulses, 99 μs, 400-600 V, 0.5 cm needle array, 20 hours after treatment
  IC50: 10 µM

## CO[C@@]12[C@H](COC(N)=O)C3=C(C(=O)C(C)=C(N)C3=O)N1C[C@@H]1N[C@@H]12 [Mitomycin C]
PC-3 cells [1]; Homo sapiens, PC-3, 20 h, read-out: IC50 no electroporation
  IC50: 80 µM
PC-3 cells [1]; Homo sapiens, PC-3, 20 h, read-out: IC50 with electroporation
  IC50: 60 µM
PC-3 cells [1]
  cytotoxicity enhancement ratio: 1.33
  cytotoxic enhancement, rank order: followed by Cisplatin and Mitomycin C

## Bleomycin
PC-3 cells [1]
  cytotoxicity enhancement ratio: 1000
  cell susceptibility with electroporation: electroporation enhances cell susceptibility
  cytotoxic enhancement, rank order: highest cytotoxic enhancement
PC-3 cells [2]; Group 2: 0.5 unit Bleomycin, no electroporation, 6 animals, 67 days
  Progressive disease: 100%
PC-3 cells [2]; Group 3: 0.5 units Bleomycin, 4 needle array, 0.65 cm, 942V, 4×100 μs pulses, 1 of 7 animals, 67 days
  partial response: 14%
PC-3 cells [2]; Group 3: 0.5 units Bleomycin, 4 needle array, 0.65 cm, 942V, 4×100 μs pulses, 1 of 7 animals
  death: 14%
PC-3 cells [2]; Group 3: 0.5 units Bleomycin, 4 needle array, 0.65 cm, 942V, 4×100 μs pulses, 5 of 7 animals, 67 days
  complete response: 52%
PC-3 cells [2]; Group 4: 0.5 units Bleomycin, 6 needle array, 1.00 cm, 1130 V, 6×100 μs pulses, 1 of 7 animals, 67 days
  partial response: 14%
PC-3 cells [2]; Group 4: 0.5 units Bleomycin, 6 needle array, 1.00 cm, 1130 V, 6×100 μs pulses, 1 of 7 animals
  death: 14%
PC-3 cells [2]; Group 4: 0.5 units Bleomycin, 6 needle array, 1.00 cm, 1130 V, 6×100 μs pulses, 5 of 7 animals, 67 days
  complete response: 52%
PC-3 cells [2]; Group 5: 0.5 units Bleomycin, 6 needle array, 0.50 cm, 559 V, 6×100 μs pulses, 1 of 6 animals, 67 days
  partial response: 17%
PC-3 cells [2]; Group 5: 0.5 units Bleomycin, 6 needle array, 0.50 cm, 559 V, 6×100 μs pulses, 5 of 6 animals, 67 days
  complete response: 83%
PC-3 cells [2]; Group 6: 0.5 units Bleomycin, 4 needle array, 0.87 cm, 1500V, 4×100 μs pulses, 1 of 8 animals, 67 days
  partial response: 12%
PC-3 cells [2]; Group 6: 0.5 units Bleomycin, 4 needle array, 0.87 cm, 1500V, 4×100 μs pulses, 2 of 8 animals
  death: 25%
PC-3 cells [2]; Group 6: 0.5 units Bleomycin, 4 needle array, 0.87 cm, 1500V, 4×100 μs pulses, 5 of 8 animals, 67 days
  complete response: 63%
prostate; [4]
  ECG, electrical rhythm of the heart: no effect on the electrical rhythm of the heart
  clinical disturbances of the cardiac rhythm: no clinical disturbances of the cardiac rhythm were observed
prostate; during the electroporation pulses
  muscular contractions: muscular contractions were observed
prostate; intraprostatic Bleomycin plus electroporation
  acute local or adverse reactions: No acute local or adverse reactions
prostate; intraprostatic Bleomycin plus electroporation, persisted for the duration of the study
  injection site finding: Small hematomas were evident at the injection site
prostate; one hour after electroporation
  gross examination of prostate, perineum and surrounding tissues: no findings except for the hematomas on the prostate surface
  necrosis of epithelial cells in the glandular portion of the prostate: Necrosis occurred in the epithelial cells
  necrosis of the supporting stroma: No necro-sis of the supporting stroma was observed
prostate; one hour after electroporation, multifocal in distribution pattern
  histological tissue findings in the prostate gland: hemorrhage, edema, and necrosis, which were mild in severity
[3]
  log P: very negative
Tumor cell
  diffusion into a tumor cell: diffuse very slowly into a tumor cell
Tumor cell; without electroporation
  penetration of the membranes of certain cancer cells: normally cannot penetrate the membranes of certain cancer cells effectively
